Read-outs that look alike come from different tables or passages of the source.

Experiment [1] addresses T1, ERR1 (also known as ERR-α or ERR-1) (Homo sapiens, UniProt P11474).
T1 sequence (P11474 193-421 limits assumed): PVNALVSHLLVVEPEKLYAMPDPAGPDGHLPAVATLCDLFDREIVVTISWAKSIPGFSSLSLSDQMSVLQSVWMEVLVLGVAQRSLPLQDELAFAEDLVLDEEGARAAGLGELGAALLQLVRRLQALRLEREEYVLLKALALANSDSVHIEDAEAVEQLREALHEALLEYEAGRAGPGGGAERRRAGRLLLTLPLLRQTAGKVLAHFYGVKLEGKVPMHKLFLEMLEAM
In words: TR-FRET assay (disruption of co-activator peptide binding to ERR1 LBD). It is filed as biochemical. Conditions: 6 nM 6His-ERR1LBD, 6 nM GST-SRC-2 peptide; average of 3 independent experiments. The gist of the method:
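His-tagged ERR1 ligand-binding domain and GST-labelled SRC-2 peptide, each 6 nM, equilibrated at 25° C for 4-18 h in Tris pH 8/Hepes/KCl/DTT/delipidated BSA buffer. Compound-induced loss of co-activator binding read as Eu cryptate→XL665 energy transfer; values from hyperbolic curve fits averaged over 3 independent runs.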
(TR-FRET usually uses a lanthanide donor and a delayed reading to cut background.)

In another experiment the test system is Zucker fa/fa male rats. In words: Zucker fa/fa Rat Model Assay. It is filed as in vivo. The conditions noted are these: po, 120 h, 10 mg/kg orally once a day for 4 days. The source says: Zucker fa/fa is a monogenic model of frank diabetes due to a mutation on the fa gene truncating the leptin receptor and preventing its interaction with its peptide hormone. This mutation results in a hyperphagic phenotype and the rodent develops obesity, hyperlipidemia, fasting hyperglycemia and insulin resistance. Zucker fa/fa male rats were received at four weeks of age and allowed to acclimate for one week. At five weeks of age the animals were single housed in cages in a temperature-controlled room with 12-hour light/dark cycle. The rats were allowed ad libitum access to water and food and throughout the study were maintained on a Purina 5008 diet. Animals were sorted based primarily on fed insulin levels and circulating triglycerides. Animals were dosed orally once a day (10 mg/kg) in the morning for 4 days. The vehicle used was either 20% HPβCD (Hydroxypropyl Beta Cyclodextrin) or 15% Vitamin E/30% PEG-400 (Polyethylene Glycol 400). Fed insulin and triglycerides were measured using blood collected from the tail vein at day 5. Serum plasma samples were prepared by centrifugation in EDTA (Ethylenediaminetetraacetic acid) containing tubes, transferred into 96 well plates and stored at −80° C.

[2] abbreviates: blood from tail vein at day 5, read-out: % Change Fed Insulin Levels.
Where [3] appears, read: blood from tail vein at day 5, read-out: % Change Fed Triglyceride Levels.

In experiment [1], `Cc1nn(Cc2ccc(Cl)cc2C(F)(F)F)c2ccc(/C=C3\SC(=O)N(CC(=O)O)C3=O)cc12` [Compound 36, [(5Z)-5-({1-[4-Chloro-2-(trifluoromethyl)benzyl]-3-methyl-1H-indazol-5-yl}methylidene)-2,4-dioxo-1,3-thiazolidin-3-yl]acetic acid] yielded an EC50 of 28 nM. The figures for the change in vivo at 10 mg/kg in the experiment on Zucker fa/fa male rats (setting [2]) and in the experiment with Zucker fa/fa male rats (setting [3]) were -18% and -4%, respectively.

As for `CN1CC[C@@H](N2C(=O)S/C(=C\c3ccc4c(cnn4Cc4ccc(Cl)cc4C(F)(F)F)c3)C2=O)[C@H](F)C1` (relative stereo) [Compound 277, (5Z)-5-({1-[4-Chloro-2-(trifluoromethyl)benzyl]-1H-indazol-5-yl}methylidene)-3-(trans-3-fluoro-1-methylpiperidin-4-yl)-1,3-thiazolidine-2,4-dione], the EC50 in experiment [1] turned out to be 58 nM. In addition, the change in vivo at 10 mg/kg in the experiment with Zucker fa/fa male rats (setting [2]) was -73%; in the experiment with Zucker fa/fa male rats (setting [3]) it was -57%.

For `CN1CC[C@H](N2C(=O)S/C(=C\c3ccc4c(cnn4Cc4ccc(Cl)cc4C(F)(F)F)c3)C2=O)C1` [Compound 143, (5Z)-5-({1-[4-Chloro-2-(trifluoromethyl)benzyl]-1H-indazol-5-yl}methylidene)-3-[(3S)-1-methylpyrrolidin-3-yl]-1,3-thiazolidine-2,4-dione], a half-maximal effect in experiment [1] (EC50) was put at 25 nM. Further, the values for the change in vivo at 10 mg/kg with Zucker fa/fa male rats (setting [2]) and with Zucker fa/fa male rats (setting [3]) were -49% and -29%, respectively.

Turning to `CN1C2CCC1CC(N1C(=O)S/C(=C\c3ccc4c(cnn4Cc4ccc(Cl)cc4C(F)(F)F)c3)C1=O)C2` (stereo not drawn) [Compound 128, (5Z)-5-({1-[4-Chloro-2-(trifluoromethyl)benzyl]-1H-indazol-5-yl}methylidene)-3-(8-methyl-8-azabicyclo[3.2.1]oct-3-yl)-1,3-thiazolidine-2,4-dione], the EC50 in experiment [1] amounted to 19 nM. The change in vivo at 10 mg/kg in the experiment with Zucker fa/fa male rats (setting [2]) was -36%; with Zucker fa/fa male rats (setting [3]) it was 28%.

For the molecule `COc1ccc(Cn2ncc3cc(/C=C4\SC(=O)N(C5CCC(C(=O)O)CC5)C4=O)ccc32)c(C(F)(F)F)c1` (stereo not drawn) [Compound 22, 4-[(5Z)-5-({1-[4-Methoxy-2-(trifluoromethyl)benzyl]-1H-indazol-5-yl}methylidene)-2,4-dioxo-1,3-thiazolidin-3-yl)cyclohexanecarboxylic acid], the EC50 in experiment [1] turned out to be 8 nM. Also, the change in vivo at 10 mg/kg in the experiment with Zucker fa/fa male rats (setting [2]) is -11%; with Zucker fa/fa male rats (setting [3]), 32%.

With `O=C(O)CN1C(=O)S/C(=C\c2ccc3c(cnn3Cc3ccc(Cl)cc3C(F)(F)F)c2)C1=O` [Compound 4, (5Z)-5-{[1-(4-Chloro-2-trifluoromethylbenzyl)-1H-indazol-5-yl]methylidene}-2,4-dioxothiazolidin-3-ylacetic acid], it took 9 nM to reach a half-maximal effect in experiment [1] (EC50). Also, the change in vivo at 10 mg/kg was -50% in the experiment with Zucker fa/fa male rats (setting [2]) and -14% with Zucker fa/fa male rats (setting [3]).

On to `CN1CC[C@@H](N2C(=O)S/C(=C\c3ccc4c(cnn4Cc4ccc(Cl)cc4C(F)(F)F)c3)C2=O)[C@H](F)C1` [Compound 383, (5Z)-5-({1-[4-Chloro-2-(trifluoromethyl)benzyl]-1H-indazol-5-yl}methylidene)-3-[(3R,4R)-3-fluoro-1-methylpiperidin-4-yl]-1,3-thiazolidine-2,4-dione], for which it took 23 nM to reach a half-maximal effect in experiment [1] (EC50). Also, the change in vivo at 10 mg/kg is -67% in the experiment on Zucker fa/fa male rats (setting [2]) and -68% with Zucker fa/fa male rats (setting [3]).

`O=C1S/C(=C\c2ccc3c(cnn3Cc3ccc(Cl)cc3C(F)(F)F)c2)C(=O)N1C[C@H]1CN2CCC[C@H]2CO1` [Compound 202, (5Z)-5-({1-[4-Chloro-2-(trifluoromethyl)benzyl]-1H-indazol-5-yl}methylidene)-3-[(3R,8aS)-hexahydro-1H-pyrrolo[2,1-c] [1,4]oxazin-3-ylmethyl]-1,3-thiazolidine-2,4-dione] yielded an EC50 in experiment [1] of 35 nM. For the same molecule, the figures for the change in vivo at 10 mg/kg with Zucker fa/fa male rats (setting [2]) and in the experiment with Zucker fa/fa male rats (setting [3]) were -3% and -26%, respectively.

The EC50 is the midpoint of the concentration-response curve. Lower therefore signals greater potency.
